The values below come from US10723778B2, “Variants of adrenomedullin and calcitonin gene-related peptide and methods of use” (The Board of Regents of the University of Oklahoma, priority 2015, dated 2020).

The target of assay [1] is T1, RAMP1-CLR ECD (CGRP); purified MBP-RAMP1 ECD-(GS)5-CLR ECD-H6 fusion protein (Homo sapiens, UniProt O60894+Q16602).
T1 construct: MBP-hRAMP1.24-111-(Gly-Ser)5-hCLR.29-144-H6; made in house; host or cells: E. coli
As to the kind of experiment: Fluorescence polarization (FP) peptide binding competition assay, CGRP receptor ECD complex. Particulars: for Receptor Selectivity, fold for CGRP: CGRP (RAMP1-CLR ECD) over AM1 (RAMP2-CLR ECD), FP assay; for Ki: RAMP1-CLR ECD (CGRP) KI (nM), FP competition, FITC-AM W/W probe 7 nM, fusion protein 15 nM. On the procedure: (§1) Fluorescence polarization peptide binding assay. […] The reactions (50 μL) were incubated for 2 hours at room temperature to reach equilibrium, and the anisotropy was measured in black half-area 96-well plates using a BMG LABTECH's POLARstar® Omega plate reader (Ortenberg, Germany). The reaction buffer was 50 mM HEPES, pH 7.5, 150 mM NaCl, 0.5 mg/ml fatty acid-free BSA, 0.5 mM EDTA, 0.5 mM maltose. Ki values were calculated using nonlinear regression fitting of the competition curves to the exact analytical equations of Roehrl et al. (Biochemistry (2004) 43:16056-66) using GraphPad Prism 5.0 (GraphPad Software, San Diego Calif.).
(§2) The ability of the indicated peptides to displace a FITC-Ahx-AM(37-52)NH2 [S45W, Q50W] probe (7 nM) from purified MBP-RAMP1 ECD-(GS)5-CLR ECD-H6 fusion protein (15 nM) was assessed by fluorescence polarization (anisotropy). The reactions were incubated for 2 hours at room temperature to reach equilibrium, and the anisotropy was measured in black half-area 96-well plates using a BMG LABTECH's POLARstar® Omega plate reader (Ortenberg, Germany). The reaction buffer was 50 mM HEPES, pH 7.5, 150 mM NaCl, 0.5 mg/ml fatty acid-free BSA, 0.5 mM EDTA, 0.5 mM maltose. KI values were calculated using nonlinear regression fitting of the competition curves to the exact analytical equations of Roehrl et al. (Biochemistry (2004) 43:16056-66) using GraphPad Prism 5.0 (GraphPad Software, San Diego Calif.).
as §2, with “Single representative experiments conducted with duplicate samples are shown. Error bars are S.E.M. The ability” for “The ability”, “displace a FITC-Ahx-AM(37-52)NH2[S45W, Q50W] probe” for “displace a FITC-Ahx-AM(37-52)NH2 [S45W, Q50W] probe”
A fluorescence polarization/anisotropy (FP) peptide-binding assay was developed using N-terminally FITC-labeled AM(37-52) S45W/Q50W as the probe, hereafter “FITC-AM W/W.” The probe was custom synthesized and HPLC-purified by RS Synthesis. The large size difference between the MBP-RAMP ECD-CLR ECD fusion proteins (˜65 kDa) and the probe (˜2.5 kDa) ensures a significant anisotropy difference between bound and free states of the probe. […] Kd values for the probe at each of the tethered ECD fusion proteins were determined in equilibrium saturation binding experiments (data not shown), and KI values were determined for unlabeled peptides in equilibrium competition experiments (Table 1; FIGS. 2-5). The data were analyzed according to exact analytical equations using non-linear regression curve fitting in GraphPad Prism 5.0 (GraphPad Software) via user-defined equations.

The target in assay [2] is T2, AMY1 receptor extracellular domain complex; purified MBP-RAMP1 ECD-(GS)5-CTR ECD-H6 fusion protein (Homo sapiens, UniProt O60894+P30988).
T2 construct: purified MBP-RAMP1 ECD-(GS)5-CTR ECD-H6 fusion protein (200 nM); made in house; host or cells: HEK293T
As to the kind of experiment: AlphaLISA luminescent peptide binding assay, AMY1 receptor ECD complex. The note with it: displacement of Biotin-AC413 probe (100 nM), fusion protein 200 nM. As for the experimental part:
A single representative experiment conducted with duplicate samples is shown. Error bars are S.E.M. The ability of the indicated peptides to displace a Biotin-AC413 probe (100 nM) from purified MBP-RAMP1 ECD-(GS)5-CTR ECD-H6 fusion protein (200 nM) was assessed by AlphaLISA® luminescent peptide binding assay (Perkin-Elmer, Waltham, Mass.) as described in Lee et al. (J Biol. Chem (2016) 291:8686-8700). The reactions were incubated for 5 hours at room temperature to reach equilibrium, and the luminescence was measured in white 384-well plates using a BMG LABTECH's POLARstar® Omega plate reader (Ortenberg, Germany). The reaction buffer was 50 mM MOPS, pH 7.4, 150 mM NaCl, 7 mg/ml fatty acid-free BSA and the streptavidin-coated donor beads and MBP-antibody coated acceptor beads were at 15 μg/ml each. IC50 values were calculated using nonlinear regression fitting of the competition curves to a three-parameter, one-site competitive binding equation in GraphPad Prism 5.0 (GraphPad Software, San Diego Calif.).

Assay [3] has as its target T3, RAMP2-CLR ECD (AM1); purified MBP-RAMP2 ECD [L106R]-(GS)5-CLR ECD-H6 fusion protein (Homo sapiens, UniProt O60895+Q16602, L106R).
T3 construct: MBP-hRAMP2.55-140 [L106R]-(Gly-Ser-Ala)3-hCLR.29-144-H6; made in house; host or cells: E. coli
As to the kind of experiment: Fluorescence polarization (FP) peptide binding competition assay, AM1 receptor ECD complex. The note with it: FP competition, FITC-AM W/W probe 7 nM, fusion protein 110 nM; read-out: RAMP2-CLR ECD (AM1) KI. As for the experimental part: as §1
FIG. 3(A-K) depicts binding of (A) AM-based peptide AM(37-52)NH2, and variant peptide AM(37-52)NH2[S45W, Q50W]; (B) AM-based peptide AM(37-52)NH2, variant peptide AM(37-52)NH2[Q50F], and variant peptide AM(37-52)NH2[Q50W]; (C) variant peptides AM(37-52)NH2[K46L], AM(37-52)NH2[K46M], and AM(37-52)NH2[D39F]; (D) variant peptides AM(37-52)NH2[D39F, K46L, Q50W], AM(37-52)NH2[D39F, K46L, Q50W, Y52F], and AM(37-52)NH2[S45W, K46L, Q50W, Y52F]; (E) variant peptides AM(37-52)NH2[[D39K], AM(37-52)NH2[K46L, Q50W], and AM(37-52)NH2[K46L, Q50W, Y52F]; (F) variant peptides AM(37-52)NH2[S45W, K46M, Q50W, Y52F], and AM(37-52)NH2[S45W, K46W, Q50W, Y52F]; (G) variant peptides AM(37-52)NH2[S45T, K46W, Q50W], AM(37-52)NH2[S45T, K46L, Q50W], and AM(37-52)NH2[S45W, K46L, S48G, Q50W, Y52F]; (H) variant peptide AM(37-52)NH2[S45W, K46L, I47M, Q50W, Y52F]; (I) variant peptides AM(37-52)NH2[S45R, K46W, Q50W], and AM(37-52)NH2[S45R, K46L, Q50W]; (J) variant peptides AM(37-52)NH2[S45R, K46W, S48G, Q50W], AM(37-52)NH2[S45R, K46L, S48G, Q50W], and AM(37-52)NH2[S45R, K46W, I47L, S48G, Q50W]; and (K) variant peptides AM(37-52)NH2[D39W, Q50W], and AM(37-52)NH2[D37V, S45W, K46L, Q50W, Y52F], to the purified AM1 receptor extracellular domain complex. Single representative experiments conducted with duplicate samples are shown. […] The reactions were incubated for 2 hours at room temperature to reach equilibrium, and the anisotropy was measured in black half-area 96-well plates using a BMG LABTECH's POLARstar® Omega plate reader (Ortenberg, Germany). The reaction buffer was 50 mM HEPES, pH 7.5, 150 mM NaCl, 0.5 mg/ml fatty acid-free BSA, 0.5 mM EDTA, 0.5 mM maltose. KI values were calculated using nonlinear regression fitting of the competition curves to the exact analytical equations of Roehrl et al. (Biochemistry (2004) 43:16056-66) using GraphPad Prism 5.0 (GraphPad Software, San Diego Calif.).
as §1, with “Single representative experiments conducted with duplicate samples are shown.” for “Fluorescence polarization peptide binding assay.”, “reactions” for “reactions (50 μL)”, “KI” for “Ki”
A fluorescence polarization/anisotropy (FP) peptide-binding assay was developed using N-terminally FITC-labeled AM(37-52) S45W/Q50W as the probe, hereafter “FITC-AM W/W.” The probe was custom synthesized and HPLC-purified by RS Synthesis. The large size difference between the MBP-RAMP ECD-CLR ECD fusion proteins (˜65 kDa) and the probe (˜2.5 kDa) ensures a significant anisotropy difference between bound and free states of the probe. […] Kd values for the probe at each of the tethered ECD fusion proteins were determined in equilibrium saturation binding experiments (data not shown), and KI values were determined for unlabeled peptides in equilibrium competition experiments (Table 1; FIGS. 2-5).

Where no end group is shown, it is not given here.

Usually Ki stands for the equilibrium dissociation constant of an inhibitor or competing ligand from its target. By IC50 is commonly meant the concentration that gives 50% inhibition. In the case of FVPTDVGPWSF-NH2 [N31D/S34P/K35W/A36S], in assay [1], the “Receptor Selectivity, fold for CGRP” value is given as 1856-fold for CGRP and the affinity corresponds to a Ki of 1.32 nM. The IC50 in assay [2] was determined as 260 nM.

As for “FVPTDVGPWSY-NH2 [N31D/S34P/K35W/A36S/F37Y]”, the inhibition constant Ki in assay [3] is 324 nM; in assay [1] it was 1.32 nM. Also, the “Receptor Selectivity, fold for CGRP” value in assay [1] is on record as 245-fold for CGRP.
